Experimental data published in patent publication US9475843B2 (Zhejiang University, priority 2015, dated 2016).
Converted amounts (≈) assume the structure as drawn. Like-named read-outs stand apart in the source and are kept apart here. No end group written: not given here.

What was measured:
[1] = tested on: S. choleraesuis CMCC50020
Excerpt: The above results are average of 6 independent experimental repeats.
E. coli EPEC O78:K80 = tested on: E. coli EPEC O78:K80
Method: (§1) Bacteria was inoculated on Mueller-Hinton (MH) agar plate, the inoculated agar plate was inverted to grow single colonies. A single colony was inoculated in 3 mL MH broth, and the broth was cultured with constant shaking at constant temperature until turbid. 30 μL of bacterial suspension was then transferred to 3 mL of fresh MH broth, and the broth was cultured with shaking at constant temperature until OD600≈0.5. 10 μL bacterial suspension was transferred to 10 mL fresh MH broth and then vortexed to mix well. […] In addition, 100 μL of bacterial suspension was added to a well as positive control, and 100 μL of MH broth was added to a well as negative control. Each testing condition and controls was performed with 6 repeats.
(§2) The aforementioned antimicrobial peptides were used as controls in the same experiments described in the second, third, fourth and fifth embodiments.

P. aeruginosa CMCC27853 = tested on: P. aeruginosa CMCC27853
Method: as §1, §2

E. coli K 88 = tested on: E. coli K 88
Method: as §1, §2

S. typhimurium CMCC50013 = tested on: S. typhimurium CMCC50013
Method: as §1, §2

S. enteritidis CMCC50041 = tested on: S. enteritidis CMCC50041
Method: as §1, §2

S. aureus ATCC25923 = tested on: S. aureus ATCC25923
Method: as §1, §2

S. epidermidis ATCC12228 = tested on: S. epidermidis ATCC12228
Method: as §1, §2

E. coli EPEC O44:K74 = tested on: E. coli EPEC O44:K74
Method: as §1, §2

E. coli K 12 = tested on: E. coli K 12
Method: as §1, §2

E. coli ATCC25922 = tested on: E. coli ATCC25922
Method: as §1, §2

E. coli EPEC O144:K26 = tested on: E. coli EPEC O144:K26
Method: as §1, §2

porcine erythrocytes = tested on: porcine erythrocytes
Method: Blood was collected from porcine vena cava with heparin added, and mixed with RPMI1640 medium at a volume ratio of 1:1. After centrifuging with FICOLL-PAQUE™, circular and milky peripheral blood mononuclear cells (PMBCs) were drawn for later use, and erythrocytes at the bottom were collected. The erythrocytes were washed with 1×PBS until the supernatant was colorless. Then the washed erythrocytes were diluted 90-fold (1:89) with 1×PBS to determine hemolysis activity.
Triton X-100 (final concentration 1%) was used as positive control, and 10 uL 1×PBS was used as negative control. Each group was performed with 6 replications. Cells were cultured for 24 hrs at 37° C. in a cell culture incubator, and followed by centrifugation at 1500 rpm for 20 min. Then supernatant was transferred to a new 96-well plate to measure the values of OD at 414 nm and 546 nm using a microplate reader, and ΔOD was calculated. The formula for calculating hemolysis ratio is as follows: hemolysis ratio (%)=100%*(ΔOD treatment group−ΔOD negative control)/(ΔOD positive control−ΔOD negative control).
as §2

[2] = tested on: Porcine macrophage cells (3D4/2 cell line); experiment: LPS-induced inflammation in porcine macrophages (cytokine mRNA); format: cell-based; conditions: FIG. 5
Method: Porcine macrophage cells (3D4/2 cell line) were cultured on RPMI-1640 medium with 10% fetal bovine serum, at 37° C. in a 5% CO2 cell incubator, until the cells formed a monolayer with about 80-90% confluency. The cells were counted and plated. The cells were seeded to a 6-well plate at 1×10^6/well, RPMI-1640 complete medium was added, and the cells were cultured to 80% confluency. Then the medium was replaced by fresh serum-free RPMI-1640 medium (2 mL). […] Each group of experiments was repeated for six replications. After incubation for 24 hrs, cells were collected and total RNA was extracted using Trizol. cDNA was obtained by reverse transcription. Relative mRNA expression of IL-6, IL-8 and IL-22 was detected. The relative mRNA expression of IL-22, IL-8 and IL-6 were measured by quantitative fluorescence method. GAPDH gene was used as a internal reference gene.

[3] = tested on: porcine peripheral mononuclear cells; conditions: porcine PBMCs, peptide ≦256 μg/mL, 24 hrs
Method: Purified PBMCs were diluted to 1×10^6 cells/mL, and cells were seeded with 90 uL per well in a 96-well plate. Further, background control well (100 μL RMPI1640 medium), low level control well (90 μL cell culture+10 μL PBS), and high level control well (90 μL cell culture+10 μL 20% Triton X-100) were also prepared. The 96-well plate was cultured at 37° C. for 2 hrs in a 5% CO2 incubator. […] Each group of experiment (each concentration) was repeated for six replications. After culturing for 24 hrs, 10 μL TritonX-100 (20%) was added to each positive control well, and mixed by pipetting. The plate was further incubated for 15 min. After culturing, the cells were centrifuged at 1500 rpm for 10 min. 60 μL of supernatant was drawn carefully from the center of each well and transferred to corresponding wells of a transparent new 96-well plate. 30 uL of LDH diluent was added to each well. The plate was cultured at room temperature for 30 min with vibration in a dark environment. OD values were recorded at 492 nm and 900 nm using a microplate reader for calculating ΔOD value. […]

Row | Compound | MIC ([1]; CMCC50020, 24 h) [µg/mL] | MIC (E. coli EPEC O78:K80; EPEC O78:K80, 24 h) [µg/mL] | MIC (P. aeruginosa CMCC27853; CMCC27853, 24 h) [µg/mL] | MIC (E. coli K 88; K 88, 24 h) [µg/mL] | MIC (S. typhimurium CMCC50013; CMCC50013, 24 h) [µg/mL] | MIC (S. enteritidis CMCC50041; CMCC50041, 24 h) [µg/mL] | MIC (S. aureus ATCC25923; ATCC25923, 24 h) [µg/mL] | MIC (S. epidermidis ATCC12228; ATCC12228, 24 h) [µg/mL] | MIC (E. coli EPEC O44:K74; EPEC O44:K74, 24 h) [µg/mL] | MIC (E. coli K 12; K 12, 24 h) [µg/mL] | MIC (E. coli ATCC25922; ATCC25922, 24 h) [µg/mL] | MIC (E. coli EPEC O144:K26; EPEC O144:K26, 24 h) [µg/mL] | also measured
1 | CC(C)C[C@H](NC(=O)[C@H](CCCNC(=N)N)NC(=O)CNC(=O)CNC(=O)[C@@H](N)CCCNC(=N)N)C(=O)N[C@H]1CSSC[C@@H](C(=O)N[C@H](C(=O)NCC(=O)N[C@@H](CCCNC(=N)N)C(N)=O)C(C)C)NC(=O)[C@H](C(C)C)NC(=O)[C@@H]2CSSC[C@H](NC(=O)[C@H](Cc3ccc(O)cc3)NC1=O)C(=O)N[C@@H](CCCNC(=N)N)C(=O)N[C@@H](CCCNC(=N)N)C(=O)N[C@@H](CCCNC(=N)N)C(=O)N[C@@H](Cc1ccccc1)C(=O)N2 [PG-1] | 4 (≈ 1.86 µM) | 16 (≈ 7.42 µM) | 8 (≈ 3.71 µM) | 8 (≈ 3.71 µM) | 4 (≈ 1.86 µM) | 16 (≈ 7.42 µM) | 2 (≈ 0.928 µM) | 4 (≈ 1.86 µM) | 32 (≈ 14.8 µM) | 8 (≈ 3.71 µM) | 4 (≈ 1.86 µM) | 64 (≈ 29.7 µM) | hemolysis activity (compared with WY-21) (porcine erythrocytes; FIG. 4): higher than WY-21
2 | SWLSKTAKKLENSAKKRIAIAIQGGPR [CP-1] | 8 | 16 | 16 | 4 | 8 | 16 | 128 | 128 | 32 | 8 | 4 | 128 | effect on LPS-induced inflammation [2]: no effects
3 | VKFFRKLKKSVKEKIGKEFKR [WY-21] |  |  |  |  |  |  |  |  |  |  |  |  | MIC ([1]; S. choleraesuis CMCC50020, 24 hrs at 37° C., MH broth): 16 µg/mL; MIC (E. coli EPEC O78:K80; E. coli EPEC O78:K80, 24 hrs at 37° C., MH broth): 16 µg/mL; MIC (P. aeruginosa CMCC27853; P. aeruginosa CMCC27853, 24 hrs at 37° C., MH broth): 8 µg/mL; MIC (E. coli K 88; E. coli K 88, 24 hrs at 37° C., MH broth): 8 µg/mL; MIC (S. typhimurium CMCC50013; S. typhimurium CMCC50013, 24 hrs at 37° C., MH broth): 16 µg/mL; MIC (S. enteritidis CMCC50041; S. enteritidis CMCC50041, 24 hrs at 37° C., MH broth): 64 µg/mL; MIC (S. aureus ATCC25923; S. aureus ATCC25923, 24 hrs at 37° C., MH broth): 8 µg/mL; MIC (S. epidermidis ATCC12228; S. epidermidis ATCC12228, 24 hrs at 37° C., MH broth): 32 µg/mL; MIC (E. coli EPEC O44:K74; E. coli EPEC O44:K74, 24 hrs at 37° C., MH broth): 8 µg/mL; MIC (E. coli K 12; E. coli K 12, 24 hrs at 37° C., MH broth): 4 µg/mL; MIC (E. coli ATCC25922; E. coli ATCC25922, 24 hrs at 37° C., MH broth): 8 µg/mL; MIC (E. coli EPEC O144:K26; E. coli EPEC O144:K26, 24 hrs at 37° C., MH broth): 16 µg/mL; hemolysis ratio (porcine erythrocytes; peptide 512 μg/mL, 24 hrs at 37° C.): less than 5%; LDH releasing rate [3]: less than 10%
